This is an account of results in ChEMBL document CHEMBL1145240, “Discovery of novel conformationally constrained tropane-based biaryl and arylacetylene ligands as potent and selective norepinephrine transporter inhibitors and potential antidepressants” (Bioorg Med Chem Lett, 2005).

Where only a bound is given, the exact number is not on record here.

Experiment [1] addresses T1, Norepinephrine transporter (Rattus norvegicus, UniProt Q9WTR4). The experiment in a line: Inhibitory constant against reuptake of [3H]NE at norepinephrine transporter of rat parietal-occipital cortex.
Experiment [2] addresses Sodium-dependent dopamine transporter (Rattus norvegicus, UniProt P23977). The experiment can be described thus: Inhibitory constant against reuptake of [3H]-DA at dopamine transporter of rat striatal membranes. It is filed as cell membranes, Membrane.
Experiment [3] deals with Sodium-dependent serotonin transporter (Rattus norvegicus, UniProt P31652). The experiment can be described thus: Inhibitory constant against reuptake of [3H]5-HT at serotonin transporter of rat […]. In kind it is tissue-based.
Experiment [4] deals with Muscarinic acetylcholine receptor. The experiment in a line: Inhibition of [3H]QNB binding to muscarinic receptor of rat cortex.
Experiment [5] concerns the target T1, Norepinephrine transporter. The experiment in a line: Inhibitory constant for [3H]NE reuptake at norepinephrine transporter of rat parietal-occipital cortex.

T1 sequence (Q9WTR4 whole entry): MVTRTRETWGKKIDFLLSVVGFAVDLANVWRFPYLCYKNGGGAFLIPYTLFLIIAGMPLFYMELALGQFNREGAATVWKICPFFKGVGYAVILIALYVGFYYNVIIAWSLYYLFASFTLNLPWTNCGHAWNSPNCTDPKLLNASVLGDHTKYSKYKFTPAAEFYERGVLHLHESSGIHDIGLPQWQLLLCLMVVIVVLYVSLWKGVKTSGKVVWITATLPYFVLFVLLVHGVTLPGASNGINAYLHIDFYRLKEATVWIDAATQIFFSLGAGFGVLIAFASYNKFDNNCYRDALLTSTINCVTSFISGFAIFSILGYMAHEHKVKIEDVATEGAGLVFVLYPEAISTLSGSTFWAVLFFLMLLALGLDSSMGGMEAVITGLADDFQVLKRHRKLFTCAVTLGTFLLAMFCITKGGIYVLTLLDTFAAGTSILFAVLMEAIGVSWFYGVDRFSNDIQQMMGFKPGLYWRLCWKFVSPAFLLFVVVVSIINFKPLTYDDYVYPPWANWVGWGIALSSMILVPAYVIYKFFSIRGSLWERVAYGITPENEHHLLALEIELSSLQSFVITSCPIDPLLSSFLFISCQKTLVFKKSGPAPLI
Chain of Sodium-dependent serotonin transporter (P31652 whole entry): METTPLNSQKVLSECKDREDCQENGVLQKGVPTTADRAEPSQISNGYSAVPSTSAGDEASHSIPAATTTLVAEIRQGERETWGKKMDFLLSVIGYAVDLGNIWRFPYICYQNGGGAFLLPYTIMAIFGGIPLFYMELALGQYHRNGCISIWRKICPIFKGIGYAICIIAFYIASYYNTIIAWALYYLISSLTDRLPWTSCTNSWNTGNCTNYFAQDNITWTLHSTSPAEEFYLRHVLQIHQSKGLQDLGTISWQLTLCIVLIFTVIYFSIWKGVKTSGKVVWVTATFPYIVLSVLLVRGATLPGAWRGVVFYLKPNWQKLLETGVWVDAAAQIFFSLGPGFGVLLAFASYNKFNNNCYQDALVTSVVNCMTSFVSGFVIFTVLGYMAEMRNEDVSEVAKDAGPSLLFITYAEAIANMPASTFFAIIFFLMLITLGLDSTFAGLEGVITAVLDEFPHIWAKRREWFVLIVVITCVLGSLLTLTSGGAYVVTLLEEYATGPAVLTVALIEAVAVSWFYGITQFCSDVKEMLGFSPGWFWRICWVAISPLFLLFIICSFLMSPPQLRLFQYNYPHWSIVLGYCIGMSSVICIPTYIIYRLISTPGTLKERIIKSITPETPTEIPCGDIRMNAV
Chain of Sodium-dependent dopamine transporter (P23977 whole entry): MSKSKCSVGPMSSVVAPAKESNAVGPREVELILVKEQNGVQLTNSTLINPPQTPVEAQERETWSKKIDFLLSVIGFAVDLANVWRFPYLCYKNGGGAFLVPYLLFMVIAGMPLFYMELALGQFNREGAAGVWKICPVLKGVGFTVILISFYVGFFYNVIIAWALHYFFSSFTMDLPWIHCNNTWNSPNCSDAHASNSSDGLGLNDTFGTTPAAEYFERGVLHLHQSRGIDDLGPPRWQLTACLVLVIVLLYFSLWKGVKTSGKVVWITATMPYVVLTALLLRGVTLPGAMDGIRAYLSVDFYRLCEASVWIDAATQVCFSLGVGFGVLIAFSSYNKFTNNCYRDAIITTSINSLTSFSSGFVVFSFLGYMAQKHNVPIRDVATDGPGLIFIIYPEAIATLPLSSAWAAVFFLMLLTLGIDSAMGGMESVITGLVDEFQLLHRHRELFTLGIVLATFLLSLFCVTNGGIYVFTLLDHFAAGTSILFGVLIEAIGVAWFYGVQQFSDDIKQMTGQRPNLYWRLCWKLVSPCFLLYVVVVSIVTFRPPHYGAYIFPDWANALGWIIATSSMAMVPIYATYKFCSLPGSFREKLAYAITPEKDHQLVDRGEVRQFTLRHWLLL

Usually Ki stands for a measure of affinity in units of concentration, obtained from inhibition or displacement. A high value points to lower affinity. `COC(=O)C1C2CC3CCC1N3C/C2=C\c1ccc(-c2ccccc2F)cc1` (configuration not stated): the Ki is 0.393 µM in experiment [1], 3.4 µM in experiment [2], 0.466 µM in experiment [3] and over 10 µM in experiment [4].
For `COC(=O)C1C2CC3CCC1N3C/C2=C\C#Cc1cccc(F)c1` (configuration not stated), in that order: 2.11 µM, over 10 µM, 0.317 µM and 13.5 µM.
For `COC(=O)C1C2CC3CCC1N3C/C2=C\C#Cc1ccccc1` (configuration not stated), in that order: over 10 µM, over 10 µM, 0.207 µM and 11.9 µM.
As for `COC(=O)C1C2CC3CCC1N3C/C2=C\C#Cc1ccsc1` (configuration not stated), the Ki in experiment [2] is over 10 µM; in experiment [5] it was 0.022 µM; in experiment [3], 0.086 µM; in experiment [4], 2.74 µM.
On to `COC(=O)C1C2CC3CCC1N3C/C2=C\C#Cc1ccc(F)c(F)c1` (configuration not stated), for which the inhibitory constant (Ki) was 0.11 µM in experiment [1], 3.15 µM in experiment [2], 0.069 µM in experiment [3] and 7.09 µM in experiment [4].
Consider `COC(=O)C1C2CC3CCC1N3C/C2=C\c1ccc(-c2cccc(C(F)(F)F)c2)cc1` (configuration not stated), for which the Ki in experiment [1] was determined as 0.0088 µM; in experiment [2], 0.556 µM; in experiment [3], 1.17 µM; in experiment [4] it was 7.06 µM.
As to `COC(=O)C1C2CC3CCC1N3C/C2=C\c1ccc(-c2ccsc2)s1` (configuration not stated), the Ki was determined as 0.0059 µM in experiment [1], 0.114 µM in experiment [2], 0.032 µM in experiment [3] and 2.14 µM in experiment [4].
`COC(=O)C1C2CC3CCC1N3C/C2=C\C#Cc1c(F)cccc1F` (configuration not stated): the inhibition constant (Ki) was 0.0053 µM in experiment [1], over 10 µM in experiment [2], 0.032 µM in experiment [3] and over 10 µM in experiment [4].
On to `COC(=O)C1C2CC3CCC1N3C/C2=C\c1ccc(-c2cccc(F)c2)cc1` (configuration not stated), for which the Ki in experiment [1] was 0.005 µM; in experiment [2] it was 0.646 µM; in experiment [3], 0.138 µM; in experiment [4], over 10 µM.
For `COC(=O)C1C2CC3CCC1N3C/C2=C\c1ccc(-c2cccc(OC)c2)cc1` (configuration not stated), in that order: 0.0094 µM, 0.114 µM, 0.346 µM and 4.06 µM.
For `COC(=O)C1C2CC3CCC1N3C/C2=C\C#Cc1cc(F)ccc1F` (configuration not stated), in that order: 1.72 µM, over 10 µM, 0.215 µM and over 10 µM.
The matching figures for `COC(=O)C1C2CC[C@@H]3C[C@@H]1/C(=C/c1ccc(-c4cc(F)cc(F)c4)cc1)CN23` (some centres not stated): 0.0013 µM, 0.228 µM, 0.0012 µM and 2.83 µM.
As to `COC(=O)C1C2CC[C@@H]3C[C@@H]1/C(=C/c1ccc(-c4ccc(F)c(F)c4)cc1)CN23` (some centres not stated), the inhibitory constant (Ki) in experiment [1] was 0.0008 µM; in experiment [2], 0.106 µM; in experiment [3], 0.295 µM; in experiment [4] it was 3.4 µM.
Regarding `COC(=O)C1C2CC3CCC1N3C/C2=C\c1ccc(-c2ccc(SC)cc2)s1` (configuration not stated), the Ki in experiment [4] is over 10 µM.
Regarding `COC(=O)C1C2CC3CCC1N3C/C2=C\c1ccc(-c2ccc(SC)cc2)cc1` (configuration not stated), the Ki in experiment [1] is 0.062 µM; in experiment [2], 1.05 µM; in experiment [3], 1.08 µM; in experiment [4] it was over 10 µM.
For `COC(=O)C1C2CC3CCC1N3C/C2=C\C#Cc1cccs1` (configuration not stated), in that order: 1.57 µM, over 10 µM, 0.142 µM and 13.9 µM.
Turning to `COC(=O)C1C2CC3CCC1N3C/C2=C\C#Cc1ccc(C)c(F)c1` (configuration not stated), the Ki in experiment [1] is 0.052 µM; in experiment [2] it was 7.07 µM; in experiment [3] it was 0.914 µM; in experiment [4], over 10 µM.
The matching figures for `COC(=O)C1C2CC3CCC1N3C/C2=C\c1ccc(-c2ccccc2OC)cc1` (configuration not stated): 0.0065 µM, 0.787 µM, 1.34 µM and over 10 µM.
The matching figures for `COC(=O)C1C2CC3CCC1N3C/C2=C\C#Cc1ccc(F)cc1` (configuration not stated): 0.104 µM, over 10 µM, 0.017 µM and 15.1 µM.
For the compound `COC(=O)C1C2CC3CCC1N3C/C2=C\c1ccc(-c2ccc(F)cc2)cc1` (configuration not stated), the Ki is 0.053 µM in experiment [1], 0.161 µM in experiment [2], 1.39 µM in experiment [3] and 1.06 µM in experiment [4].
